From ChEMBL document CHEMBL4342406, “Revealing quinquennial anticancer journey of morpholine: A SAR based review” (Eur J Med Chem, 2019)
One block for each compound: values may come before it.

Columns and labels:
A549 [1] = experiment: Antiproliferative activity in human A549 cells by MTT assay; assay type: functional, cell-based
MCF7 [2] = experiment: Antiproliferative activity in human MCF7 cells by MTT assay; assay type: functional, cell-based
BEL-7404 tumor cell line = experiment: Antiproliferative activity in human Bel7404 cells by MTT assay; assay type: functional, cell-based
[3] = target: Epidermal growth factor receptor (Homo sapiens, UniProt P00533, T790M); experiment: Inhibition of EGFR T790M mutant (unknown origin) incubated for 60 mins by ADP-Glo kinase assay
Chain of Epidermal growth factor receptor (P00533 25-1210 T790M limits assumed): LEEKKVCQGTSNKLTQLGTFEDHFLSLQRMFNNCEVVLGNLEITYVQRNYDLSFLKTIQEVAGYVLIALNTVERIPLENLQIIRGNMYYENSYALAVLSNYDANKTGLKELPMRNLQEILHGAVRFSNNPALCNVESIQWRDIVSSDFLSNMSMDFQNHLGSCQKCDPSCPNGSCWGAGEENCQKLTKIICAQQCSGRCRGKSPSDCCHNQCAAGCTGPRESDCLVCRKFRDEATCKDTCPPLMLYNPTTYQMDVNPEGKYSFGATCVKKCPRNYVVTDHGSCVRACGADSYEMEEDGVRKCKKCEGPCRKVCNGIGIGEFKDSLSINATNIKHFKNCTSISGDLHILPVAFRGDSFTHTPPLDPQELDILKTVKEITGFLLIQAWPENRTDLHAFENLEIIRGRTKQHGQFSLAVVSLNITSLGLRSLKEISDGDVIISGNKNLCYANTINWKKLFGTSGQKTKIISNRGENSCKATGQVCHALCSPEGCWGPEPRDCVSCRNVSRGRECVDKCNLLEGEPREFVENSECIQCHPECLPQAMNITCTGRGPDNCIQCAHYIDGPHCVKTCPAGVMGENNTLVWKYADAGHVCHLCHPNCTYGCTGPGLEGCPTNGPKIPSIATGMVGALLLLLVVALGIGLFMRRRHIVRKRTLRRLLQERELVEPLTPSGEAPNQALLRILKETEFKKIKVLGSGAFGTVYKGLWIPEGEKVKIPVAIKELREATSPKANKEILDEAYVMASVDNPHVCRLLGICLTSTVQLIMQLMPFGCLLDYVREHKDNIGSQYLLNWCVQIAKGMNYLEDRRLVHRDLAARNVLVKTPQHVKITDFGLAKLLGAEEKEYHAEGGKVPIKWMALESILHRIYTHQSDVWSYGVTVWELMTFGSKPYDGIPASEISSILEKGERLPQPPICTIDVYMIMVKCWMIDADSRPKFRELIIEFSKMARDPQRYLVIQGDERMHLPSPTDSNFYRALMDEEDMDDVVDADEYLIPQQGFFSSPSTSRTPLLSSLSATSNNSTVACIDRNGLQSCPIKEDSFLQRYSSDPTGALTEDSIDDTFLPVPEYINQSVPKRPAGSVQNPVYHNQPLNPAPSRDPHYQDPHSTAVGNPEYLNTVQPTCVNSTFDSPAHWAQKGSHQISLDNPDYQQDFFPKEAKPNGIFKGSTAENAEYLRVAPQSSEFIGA

Lymphocyte = experiment: Cytotoxicity against human lymphocytes assessed as reduction in cell viability after 72 hrs by MTT assay; assay type: cell-based
HT-29 = experiment: Cytotoxicity against human HT-29 cells assessed as reduction in cell viability after 72 hrs by MTT assay; assay type: functional, cell-based; conditions: HT-29, 72 h
A549 [4] = experiment: Cytotoxicity against human A549 cells assessed as reduction in cell viability after 72 hrs by MTT assay; assay type: functional, cell-based; conditions: A549, 72 h
MCF7 [5] = experiment: Cytotoxicity against human MCF7 cells assessed as reduction in cell viability incubated for 3 days by MTT assay; assay type: functional, cell-based; conditions: MCF7, 72 h
SMMC-7721 = experiment: Antiproliferative activity in human SMMC7721 cells after 72 hrs by MTS assay; assay type: functional, cell-based; conditions: SMMC-7721, 72 h
Bel-7402 = experiment: Antiproliferative activity in human Bel7402 cells after 72 hrs by MTS assay; assay type: functional, cell-based; conditions: Bel-7402, 72 h
QGY-7703 = experiment: Antiproliferative activity in human QGY7703 cells after 72 hrs by MTS assay; assay type: functional, cell-based; conditions: QGY-7703, 72 h

SMILES: CCCCCCCCCC[C@H](O)COCCOC[C@@H](O)CCCCCCCCCCCCCCN1CCOCC1
IC50 (A549 [1]): 11.7 µM
IC50 (MCF7 [2]): 13 µM
IC50 (BEL-7404 tumor cell line): 25.8 µM

SMILES: COc1ccc(Cn2cnc3c(cc(N4CCOCC4)c4ccccc43)c2=O)cc1
IC50 (Lymphocyte): 175 µM
IC50 (HT-29): 4.12 µM
IC50 (A549 [4]): 134 µM

SMILES: COc1c2ccoc2c(S(=O)(=O)N2CCOCC2)c2oc(C)c(C(C)=O)c(=O)c12
IC50 (MCF7 [5]): 0.125 µM

The next lines start with results.

IC50 [3]: 0.0043 µM
SMILES: C=CC(=O)Nc1cccc(Nc2ncnc3cc(OC)c(OCCN4CCOCC4)cc23)c1

IC50 (SMMC-7721): 0.123 µM
IC50 (Bel-7402): 0.285 µM
SMILES: O=c1ccc(-c2cc(C(F)(F)F)c(N3CCOCC3)nn2)n[nH]1
IC50 (QGY-7703): 0.178 µM
